Patent publication US12529066B2, “Plants having increased tolerance to herbicides” (BASF AGRO B.V., priority 2012, dated 2026)

What was measured:
[1] = tested on: Chlamydomonas reinhardtii; assay: Selection of Chlamydomonas reinhardtii strains on solid medium containing herbicide; type: cell-based; conditions: solid medium containing 1×10^−7 M
[2] = tested on: Chlamydomonas reinhardtii; assay: Dose-response curves of Chlamydomonas reinhardtii wild-type and mutagenized cells (strain 17); conditions: mutagenized cells (strain 17) versus wild-type cells

With `C#CCN1C(=O)C(F)(F)Oc2cc(F)c(-n3c(=O)n(C)c(=S)n(C)c3=O)cc21` [I.a.35] the “growth of resistant mutagenized cells on solid medium” value ([1]; resistant cells (colonies 31 and 32)) was “form colonies”, the “growth of susceptible mutagenized cells on solid medium” value ([1]; susceptible cells) was “do not grow” and the “IC50 of strain 17 compared to Wild-type cells” value [2] was “much lower IC50”.
